Laboratory results published in the NIST ThermoML archive (doi:10.1021/je501162f).
± gives the expanded uncertainty stated by the source.

Assay: molar heat capacity at constant pressure
Conditions: 293.15 K; 101.33 kPa; Liquid; Small sample (50 mg) DSC

Structure (SMILES)	molar heat capacity at constant pressure [J/K/mol]
CCCCCCCC[n+]1ccn(C)c1.N[C@@H](CO)C(=O)[O-] [1-methyl-3-octyl-1H-imidazol-3-ium L-serinate]	599.21 ± 61
CCCCCCCC[n+]1ccn(C)c1.NC(=O)C[C@H](N)C(=O)[O-] [1-methyl-3-octylimidazolium L-asparaginate]	654 ± 66
CCCCCCCC[n+]1ccn(C)c1.C[C@H](N)C(=O)[O-] [1-methyl-3-octylimidazolium L-alaninate]	592.06 ± 60
CCCCCCCCn1cc[n+](C)c1.NCC(=O)[O-] [1-methyl-3-octylimidazolium glycinate]	504.06 ± 51
CCCCCCCCn1cc[n+](C)c1.O=C([O-])[C@@H]1CCCN1 [1-methyl-3-octyl-1H-imidazol-3-ium L-prolinate]	561.68 ± 57

Same assay, conditions: 303.15 K; 101.33 kPa; Liquid; Small sample (50 mg) DSC

Structure (SMILES)	molar heat capacity at constant pressure [J/K/mol]
CCCCCCCC[n+]1ccn(C)c1.N[C@@H](CO)C(=O)[O-] [1-methyl-3-octyl-1H-imidazol-3-ium L-serinate]	607.97 ± 61
CCCCCCCC[n+]1ccn(C)c1.NC(=O)C[C@H](N)C(=O)[O-] [1-methyl-3-octylimidazolium L-asparaginate]	662.93 ± 67
CCCCCCCC[n+]1ccn(C)c1.C[C@H](N)C(=O)[O-] [1-methyl-3-octylimidazolium L-alaninate]	600.95 ± 61
CCCCCCCCn1cc[n+](C)c1.NCC(=O)[O-] [1-methyl-3-octylimidazolium glycinate]	511.67 ± 52
CCCCCCCCn1cc[n+](C)c1.O=C([O-])[C@@H]1CCCN1 [1-methyl-3-octyl-1H-imidazol-3-ium L-prolinate]	569.53 ± 58

Same assay, conditions: 313.15 K; 101.33 kPa; Liquid; Small sample (50 mg) DSC

Structure (SMILES)	molar heat capacity at constant pressure [J/K/mol]
CCCCCCCC[n+]1ccn(C)c1.N[C@@H](CO)C(=O)[O-] [1-methyl-3-octyl-1H-imidazol-3-ium L-serinate]	614.69 ± 62
CCCCCCCC[n+]1ccn(C)c1.NC(=O)C[C@H](N)C(=O)[O-] [1-methyl-3-octylimidazolium L-asparaginate]	670.78 ± 68
CCCCCCCC[n+]1ccn(C)c1.C[C@H](N)C(=O)[O-] [1-methyl-3-octylimidazolium L-alaninate]	609.08 ± 62
CCCCCCCCn1cc[n+](C)c1.NCC(=O)[O-] [1-methyl-3-octylimidazolium glycinate]	518.04 ± 52
CCCCCCCCn1cc[n+](C)c1.O=C([O-])[C@@H]1CCCN1 [1-methyl-3-octyl-1H-imidazol-3-ium L-prolinate]	578.89 ± 58

Same assay, conditions: 323.15 K; 101.33 kPa; Liquid; Small sample (50 mg) DSC

Structure (SMILES)	molar heat capacity at constant pressure [J/K/mol]
CCCCCCCC[n+]1ccn(C)c1.N[C@@H](CO)C(=O)[O-] [1-methyl-3-octyl-1H-imidazol-3-ium L-serinate]	624.21 ± 63
CCCCCCCC[n+]1ccn(C)c1.NC(=O)C[C@H](N)C(=O)[O-] [1-methyl-3-octylimidazolium L-asparaginate]	682.99 ± 69
CCCCCCCC[n+]1ccn(C)c1.C[C@H](N)C(=O)[O-] [1-methyl-3-octylimidazolium L-alaninate]	620.49 ± 63
CCCCCCCCn1cc[n+](C)c1.NCC(=O)[O-] [1-methyl-3-octylimidazolium glycinate]	526.8 ± 53
CCCCCCCCn1cc[n+](C)c1.O=C([O-])[C@@H]1CCCN1 [1-methyl-3-octyl-1H-imidazol-3-ium L-prolinate]	590.88 ± 60

Same assay, conditions: 333.15 K; 101.33 kPa; Liquid; Small sample (50 mg) DSC

Structure (SMILES)	molar heat capacity at constant pressure [J/K/mol]
CCCCCCCC[n+]1ccn(C)c1.N[C@@H](CO)C(=O)[O-] [1-methyl-3-octyl-1H-imidazol-3-ium L-serinate]	634.19 ± 64
CCCCCCCC[n+]1ccn(C)c1.NC(=O)C[C@H](N)C(=O)[O-] [1-methyl-3-octylimidazolium L-asparaginate]	694.16 ± 70
CCCCCCCC[n+]1ccn(C)c1.C[C@H](N)C(=O)[O-] [1-methyl-3-octylimidazolium L-alaninate]	632.82 ± 64
CCCCCCCCn1cc[n+](C)c1.NCC(=O)[O-] [1-methyl-3-octylimidazolium glycinate]	536.66 ± 54
CCCCCCCCn1cc[n+](C)c1.O=C([O-])[C@@H]1CCCN1 [1-methyl-3-octyl-1H-imidazol-3-ium L-prolinate]	603.42 ± 61

Same assay, conditions: 343.15 K; 101.33 kPa; Liquid; Small sample (50 mg) DSC

Structure (SMILES)	molar heat capacity at constant pressure [J/K/mol]
CCCCCCCC[n+]1ccn(C)c1.N[C@@H](CO)C(=O)[O-] [1-methyl-3-octyl-1H-imidazol-3-ium L-serinate]	644.72 ± 65
CCCCCCCC[n+]1ccn(C)c1.NC(=O)C[C@H](N)C(=O)[O-] [1-methyl-3-octylimidazolium L-asparaginate]	705.81 ± 71
CCCCCCCC[n+]1ccn(C)c1.C[C@H](N)C(=O)[O-] [1-methyl-3-octylimidazolium L-alaninate]	645.14 ± 65
CCCCCCCCn1cc[n+](C)c1.NCC(=O)[O-] [1-methyl-3-octylimidazolium glycinate]	546.99 ± 55
CCCCCCCCn1cc[n+](C)c1.O=C([O-])[C@@H]1CCCN1 [1-methyl-3-octyl-1H-imidazol-3-ium L-prolinate]	615.85 ± 62

Same assay, conditions: 353.15 K; 101.33 kPa; Liquid; Small sample (50 mg) DSC

Structure (SMILES)	molar heat capacity at constant pressure [J/K/mol]
CCCCCCCC[n+]1ccn(C)c1.N[C@@H](CO)C(=O)[O-] [1-methyl-3-octyl-1H-imidazol-3-ium L-serinate]	655.67 ± 66
CCCCCCCC[n+]1ccn(C)c1.NC(=O)C[C@H](N)C(=O)[O-] [1-methyl-3-octylimidazolium L-asparaginate]	717.01 ± 72
CCCCCCCC[n+]1ccn(C)c1.C[C@H](N)C(=O)[O-] [1-methyl-3-octylimidazolium L-alaninate]	657.43 ± 66
CCCCCCCCn1cc[n+](C)c1.NCC(=O)[O-] [1-methyl-3-octylimidazolium glycinate]	555.85 ± 56
CCCCCCCCn1cc[n+](C)c1.O=C([O-])[C@@H]1CCCN1 [1-methyl-3-octyl-1H-imidazol-3-ium L-prolinate]	627.51 ± 63

Assay: not given
Conditions: 293.15 K; 101.33 kPa; Liquid

Structure (SMILES)	viscosity [mPa·s]
CCCCCCCC[n+]1ccn(C)c1.N[C@@H](CO)C(=O)[O-] [1-methyl-3-octyl-1H-imidazol-3-ium L-serinate]	2853 ± 470
CCCCCCCC[n+]1ccn(C)c1.C[C@H](N)C(=O)[O-] [1-methyl-3-octylimidazolium L-alaninate]	705.1 ± 76
CCCCCCCCn1cc[n+](C)c1.NCC(=O)[O-] [1-methyl-3-octylimidazolium glycinate]	486.4 ± 45
CCCCCCCCn1cc[n+](C)c1.O=C([O-])[C@@H]1CCCN1 [1-methyl-3-octyl-1H-imidazol-3-ium L-prolinate]	1969.8 ± 290

Same assay, conditions: 293.15 K; 101.33 kPa; Liquid; Vibrating tube method

Structure (SMILES)	mass density [kg/m3]
CCCCCCCC[n+]1ccn(C)c1.N[C@@H](CO)C(=O)[O-] [1-methyl-3-octyl-1H-imidazol-3-ium L-serinate]	1075.6 ± 2.2
